Key:
S. typhimurium = assay: Bactericidal activity, percent survival of S. typhimurium suspension; assay type: cell-based, Salmonella typhimurium; conditions: for % Survival at 2 hours: S. typhimurium
Description: (§1) All tests in the following examples were performed at 37° C. The efficacy of the enhanced broad range bactericides was determined by assaying bactericidal activity as measured by the percent bacterial survival after treatment with the bactericide. Generally, after incubation of a 10^7 cell per ml suspension of target species with the novel bactericide for specified lengths of time, bacteria were collected by centrifugation for 2 minutes. The bacterial pellet was washed free of the bactericide with a rescue buffer, termed herein Phage buffer (50 mM Tris-HCl buffer pH 7.8, 1 mM MgSO4, 4 mM CaCl2, 0.1M Nacl, and 0.1% gelatin), resuspended and serially diluted into Phage buffer, and 100 μl of the suspended bacteria were spread on nutrient agar plates. Surviving bacteria were determined by scoring colony forming units (CFU) after incubation for 24-48 hours at 37° C.
The control (Test #1) is identical to the control of Example 1 (Table 1).

E. coli = assay: Bactericidal activity, percent survival of E. coli at 2 hours; assay type: cell-based, Escherichia coli; conditions: for Percentage E. coli Survival at 2 hours: Tris pH 8.0
Description: as §1
The effects of the bactericide were measured as a function of percentage bacteria survival after 2 hours.

K. pneumoniae = assay: Bactericidal activity, percent survival of K. pneumoniae; assay type: cell-based, Klebsiella pneumoniae
Description: as §1
The effect was measured as a function of percentage bacterial survival after 2 hours.

[1] = system: S. typhimurium on chicken muscle; assay: Bactericidal activity towards S. typhimurium on chicken muscle (unadhered cells); assay type: cell-based, Salmonella typhimurium
Description: Incubations were performed in either 50 mM sodium acetate, pH 5.0, or 20 mM Tris, pH 8.0 at 37° C.
Cubes of chicken muscle were cleansed with sodium hypochlorite and povidone iodine prior to use. To inoculate the tissue, the cubes of chicken muscle were dipped into a 10^8 cells/ml suspension of S. typhimurium in 20 mM Tris HCl, pH 8.0. Excess moisture was removed from dipped cubes by tapping. The chicken samples were placed into sufficient buffer containing the nisin composition to cover the tissue and incubated for 2 hours at 37° C. after which the tissue was removed to sufficient Phage buffer to cover the tissue. The bacteria remaining in the test solution were collected by centrifugation, washed with Phage buffer, and combined with bacteria washed from the tissue by Phage buffer. The combined samples (termed "unadhered" cells) were serially diluted and 100 μl aliquots were plated for determination of surviving bacteria.
(§2) Cubes of chicken muscle were cleansed with sodium hypochlorite and povidone iodine prior to use. To inoculate the tissue, the cubes of chicken muscle were dipped into a 10^8 cells/ml suspension of S. typhimurium in 20 mM Tris HCl, pH 8.0. Excess moisture was removed from dipped cubes by tapping. The tissue was placed into sufficient buffer containing the nisin compositions to cover the tissue, and incubated for 2 hours at 37° C. after which the tissue was removed to sufficient Phage buffer to cover the tissue. The bacteria remaining in the test solution were collected by centrifugation, washed with Phage buffer, and combined with bacteria washed from the tissue by Phage buffer. The combined samples (termed "unadhered" cells) were serially diluted and 100 μl aliquots were plated for determination of surviving bacteria.
as §2, with “cleaned” for “cleansed”, “50” for “20”, “sodium acetate buffer,” for “Tris HCl,”, “5.0.” for “8.0.”, “containing” for “containing the”

Staphylococcus aureus = assay: Bactericidal activity towards Staphylococcus aureus, influence of pH and EDTA; assay type: cell-based; conditions: S. aureus
Description: as §1
Incubations were performed in 50 mM sodium acetate buffer, pH 5.0 or 20 m
TrisHCl buffer, pH 8.0 at 37° C.

Listeria monocytogenes [2] = assay: Bactericidal activity towards Listeria monocytogenes in Tris buffer; assay type: cell-based; conditions: L. monocytogenes
Description: as §1
(§3) Incubations were performed in 20 mM TrisHCl, pH 8.0 at 37° C.

Coryneform bacteria = assay: Bactericidal activity towards Coryneform bacteria; assay type: cell-based, mixed population of axillary Coryneform bacteria
Description: as §1, §3

Streptococcus mutans [3] = assay: Kinetics of bactericidal activity towards Streptococcus mutans; assay type: cell-based; conditions: S. mutans, nisin 0 with 1.0 mM EDTA, pH 7.3
Description: The suspensions were incubated for various times ranging from 0.5 to 60 minutes with the bactericides. The bactericidal efficacy of the bactericides was estimated by determining the percent survival of bacteria.
Incubations were performed in 20 mM TrisHCl, pH 7.3 at 37° C.

Escherichia coli = assay: Rapid bactericidal activity towards Escherichia coli (1 min); assay type: cell-based; conditions: E. coli; EDTA 1.0 mM, nisin 0; 20 mM Tris pH 7.0
Description: as §1
Incubations were performed in 20 mM Tris, pH 7.0 at 37° C.

Streptococcus agalactiae = assay: Bactericidal activity towards Streptococcus agalactiae in milk; assay type: cell-based; conditions: S. agalactiae in milk
Description: as §1
However, the combination of the two agents, 0.1% monolaurin and nisin 0.2 μg/ml, is extremely potent towards S. agalactiae. […] Thus, when the application of nisin is limited by its available activity, a bactericide comprising nisin with a surfactant can be expected to be more useful.
(§4) Incubations were in milk at 37° C.

Streptococcus mutans [4] = assay: Bactericidal activity towards Streptococcus mutans at 2 hr; assay type: cell-based; conditions: S. mutans; nisin 0.1 μg/ml, EDTA 0; 20 mM TrisHCl pH 8.0
Description: as §1, §3

Listeria monocytogenes [5] = assay: Bactericidal activity towards Listeria monocytogenes in milk; assay type: cell-based; conditions: for % Survival 2 hr: L. monocytogenes in milk
Description: as §1
An example of where the application of nisin is limited by its available activity is illustrated by the data in Table 15B.
as §4

[6] = nisin 3.0 μg/ml, EDTA 0, pH 8.0

Compound: O=C([O-])CN(CCN(CC(=O)[O-])CC(=O)O)CC(=O)O.[Na+].[Na+] [EDTA]
- Percentage S. typhimurium Survival at 3 hours (S. typhimurium; EDTA 20 mM, nisin 0, 20 mM Tris pH 8.0): 2.5%
- % Survival at 2 hours (S. typhimurium; EDTA 1.0 mM, BSA 1.0%, nisin 0, 20 mM Tris pH 8.0): 63%
- % Survival at 2 hours (S. typhimurium; EDTA 2.0 mM, nisin 0, 20 mM Tris pH 8.0): 8.7%
- % Survival at 2 hours (S. typhimurium; EDTA 2.0 mM, nisin 0, 50 mM sodium acetate pH 5.0): 38.7%
- % Survival at 2 hours (S. typhimurium; EDTA 10 mM, nisin 0, pH 5.0): 15.2%
- % Survival at 2 hours (S. typhimurium; EDTA 10 mM, nisin 0, pH 8.0): 14%
- % Survival at 2 hours (S. typhimurium; EDTA 50 mM, nisin 0, pH 5.0): 3.5%
- % Survival at 2 hours (S. typhimurium; EDTA 50 mM, nisin 0, pH 8.0): 11.4%
- % Survival at 2 hours (S. typhimurium; EDTA 100 mM, nisin 0, pH 8.0): 45%
- Percentage E. coli Survival at 2 hours (E. coli; EDTA 20 mM, nisin 0): 14.5%
- % Survival at 2 hours (K. pneumoniae; EDTA 20 mM, nisin 0, Tris pH 8.0): 22%
- % Survival at 2 hours ([1]; EDTA 1.0 mM, BSA 1.0%, nisin 0, pH 8.0): 27%
- % Survival at 2 hours (Unadhered cells) ([1]; EDTA 10 mM, nisin 0, methyl paraben 0, 50 mM Na acetate pH 5.0 (Table 10)): 11.8%
- % Survival at 2 hours (Unadhered cells) ([1]; EDTA 10 mM, nisin 0, pH 5.0 (Table 7)): 6.4%
- % Survival at 2 hours (Unadhered cells) ([1]; EDTA 10 mM, nisin 0, pH 8.0): 5.2%
- % Survival 2 hr (Staphylococcus aureus; EDTA 0.3 mM, nisin 0, pH 8.0): 100%
- % Survival 2 hr (Staphylococcus aureus; EDTA 1.0 mM, nisin 0, pH 8.0): 81%
- % Survival 2 hr (Staphylococcus aureus; EDTA 3.0 mM, nisin 0, pH 5.0): 100%
- % Survival 2 hr (Staphylococcus aureus; EDTA 3.0 mM, nisin 0, pH 8.0): 100%
- % Survival 2 hr (Staphylococcus aureus; EDTA 10 mM, nisin 0, pH 8.0): 100%
- % Survival 2 hr (Staphylococcus aureus; EDTA 30 mM, nisin 0, pH 8.0): 100%
- % Survival after 2 hr (Listeria monocytogenes [2]; EDTA 1.0 mM, nisin 0, 20 mM TrisHCl pH 8.0): 84%
- % Survival 2 hr (Coryneform bacteria; EDTA 0.3 mM, nisin 0, 20 mM TrisHCl pH 8.0): 4.6%
- % Survival 2 hr (Coryneform bacteria; EDTA 1.0 mM, nisin 0, pH 8.0): 3.6%
- % Survival 2 hr (Coryneform bacteria; EDTA 3.0 mM, nisin 0, pH 8.0): 8%
- % Survival 2 hr (Coryneform bacteria; EDTA 10 mM, nisin 0, pH 8.0): 36%
- % Survival (Streptococcus mutans [3]; 3 min): 100%
- % Survival (Streptococcus mutans [3]; 60 min): 100%
- % survival at 1 min (Escherichia coli): 100%

Compound: CCCCCCCCCCCC(=O)OCC(O)CO (stereo not shown) [Monolaurin, monolaurin]
- % survival at 2 h (Streptococcus agalactiae; monolaurin 0.01%, nisin 0): 100%
- % survival at 2 h (Streptococcus agalactiae; monolaurin 0.1%, nisin 0): 4.5%

Compound: Nisin
- % Survival at 2 hours (S. typhimurium; nisin 10 ug/ml, EDTA 0, BSA 0 (Table 8)): 51.3%
- % Survival at 2 hours (S. typhimurium; nisin 100 ug/ml, EDTA 0, BSA 0 (Table 8)): 1.6%
- % Survival at 2 hours (S. typhimurium; nisin 100 μg/ml, EDTA 0, pH 5.0): 0.6%
- % Survival at 2 hours (S. typhimurium; nisin 100 μg/ml, EDTA 0, pH 8.0 (Table 6)): 4%
- Percentage S. typhimurium Survival at 3 hours (S. typhimurium; nisin 50 μg/ml, EDTA 0, 20 mM Tris pH 8.0): 7.0%
- Percentage S. typhimurium Survival at 3 hours (S. typhimurium; nisin 100 μg/ml, EDTA 0, 20 mM Tris pH 8.0): 1.6%
- Percentage E. coli Survival at 2 hours (E. coli; nisin 100 μg/ml, EDTA 0, Triton X-100 0): 25%
- Percentage E. coli Survival at 2 hours (E. coli; nisin 300 μg/ml, EDTA 0, Triton X-100 0): 8.5%
- % Survival at 2 hours (K. pneumoniae; nisin 100 μg/ml, EDTA 0, 20 mM Tris pH 8.0, 37°C): 50%
- % Survival at 2 hours (K. pneumoniae; nisin 300 μg/ml, EDTA 0, Tris pH 8.0): 38%
- % Survival at 2 hours (Unadhered cells) ([1]; nisin 300 ug/ml, 1% BSA, EDTA 0, pH 8.0): 0.02%
- % Survival at 2 hours (Unadhered cells) ([1]; nisin 300 ug/ml, EDTA 0, pH 5.0): 0.1%
- % Survival at 2 hours (Unadhered cells) ([1]; nisin 300 ug/ml, EDTA 0, pH 8.0): 7.5%
- % Survival 2 hr (Staphylococcus aureus; nisin 3.0 μg/ml, EDTA 0, pH 5.0): 0.6%
- % Survival 2 hr (Staphylococcus aureus; [6]): 7.4%
- % Survival after 2 hr (Streptococcus mutans [4]): 4.3%
- % Survival after 2 hr (Listeria monocytogenes [2]; [6]): 0.71%
- % Survival 2 hr (Coryneform bacteria; nisin 3 ug/ml, EDTA 0, pH 8.0): 0.22%
- % survival at 2 h (Streptococcus agalactiae; nisin 0.02 μg/ml, monolaurin 0): 100%
- % survival at 2 h (Streptococcus agalactiae; nisin 0.2 μg/ml, monolaurin 0): 2.2%
- % Survival 2 hr (Listeria monocytogenes [5]; nisin 100 μg/ml, monooleate 0): 0.56%

Compound: Triton X-100
- Percentage S. typhimurium Survival at 3 hours (S. typhimurium; Triton X-100 1.0%, nisin 0, EDTA 0, Tris pH 8.0): 37.4%
- Percentage E. coli Survival at 2 hours (E. coli; Triton X-100 1.0%, nisin 0, EDTA 0): 100%
- bactericidal activity towards E. coli (in words) (E. coli; Triton X-100 1.0%, tests #3 and #4): no significant bactericidal activity

Compound: monooleate
- % Survival 2 hr (Listeria monocytogenes [5]; monooleate 0.1%, nisin 0): 67%
- % Survival 2 hr (Listeria monocytogenes [5]; monooleate 1.0%, nisin 0): 63%
- bactericidal activity towards L. monocytogenes (in words) (Listeria monocytogenes [5]; monooleate by itself, in milk): no bactericidal activity

Reference: US5753614A, “Nisin compositions for use as enhanced, broad range bactericides” (AMBI Inc., priority 1995, dated 1998)
